From patent US20060014723A1, “Anti-parasitic uses of borinic acid complexes” (priority 2004, published 2006) come the findings set out here.

Converted amounts (≈) assume the structure as drawn.

The test system of test [1] is T. b. rhodesiense STIB 900. Put plainly: African sleeping sickness in vitro screening model (Alamar Blue). The class given is cell-based, Trypanosoma brucei rhodesiense. The gist of the method: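 Bloodstream-form trypomastigotes, 8×10^3/well, were grown in supplemented MEM with 15% horse serum, without hypoxanthine, at 37 °C in 5% CO2. They were exposed for 72 h to seven 3-fold dilutions from 90 to 0.123 μg/mL. Resazurin (Alamar Blue) was added for 2 h, fluorescence read at ex 536/em 588 nm, and IC50 taken as the mean of four values.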

In test [2] the test system is Leishmania donovani strain MHOM/ET1671L82. As to the kind of experiment: Leishmaniasis in vitro screening model (axenic amastigotes, Alamar Blue). The class given is cell-based. The gist of the method:
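Axenic L. donovani amastigotes (10^5 per well) from hamster spleen, grown at 37° C in SM medium pH 5.4 with 10% FBS, 5% CO2, exposed to serial 3-fold compound dilutions (30 to 0.041 μg/mL) for 72 h. Alamar Blue added for 2 h, fluorescence read (ex 536/em 588 nm); IC50 from sigmoidal curve versus control cultures.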
(Alamar Blue is a resazurin reagent that responds to reducing activity.)

For `CC1(C)COC(c2cccc(B(Oc3cccc4cccnc34)c3cccc(C4=NC(C)(C)CO4)c3)c2)=N1` [Compound 13, Bis[3-(4,5-dihydro-4,4-dimethyloxazol-2-yl)phenyl]borinic acid 8-hydroxyquinoline ester], the “T. b. rhodesiense IC50” value in test [1] is 0.5 µg/mL. For the same compound, the “L. donovani IC50” value in test [2] came out at 0.82 µg/mL.

For orientation: IC50 means the point on the concentration scale where inhibition reaches its midpoint. Regarding `COc1ccc(B(Oc2cccc3cccnc23)c2cccc(Cl)c2)cc1OC` [Compound 27, (3-Chlorophenyl)(3,4-dimethoxyphenyl)borinic acid quinolin-8-yl ester], the IC50 in test [1] (Trypanosoma brucei) is 0.52 µg/mL (≈ 1.29 µM); in test [2] (Leishmania donovani, read-out: L. donovani IC50), 0.47 µg/mL (≈ 1.16 µM).
